Experimental findings from patent US20200207734A1, “HETEROCYCLIC COMPOUND AND USE THEREOF” (Takeda Pharmaceutical Company Limited, priority 2017, published 2020) are described below.

For this assay, the target named is T1, human orexin type 2 receptor (Homo sapiens, UniProt O43614).
T1 construct: human orexin type 2 receptor cDNA was inserted into pcDNA3.1(+) plasmid vector (Invitrogen); expressed in transfected cells
T1 sequence (O43614 1-444): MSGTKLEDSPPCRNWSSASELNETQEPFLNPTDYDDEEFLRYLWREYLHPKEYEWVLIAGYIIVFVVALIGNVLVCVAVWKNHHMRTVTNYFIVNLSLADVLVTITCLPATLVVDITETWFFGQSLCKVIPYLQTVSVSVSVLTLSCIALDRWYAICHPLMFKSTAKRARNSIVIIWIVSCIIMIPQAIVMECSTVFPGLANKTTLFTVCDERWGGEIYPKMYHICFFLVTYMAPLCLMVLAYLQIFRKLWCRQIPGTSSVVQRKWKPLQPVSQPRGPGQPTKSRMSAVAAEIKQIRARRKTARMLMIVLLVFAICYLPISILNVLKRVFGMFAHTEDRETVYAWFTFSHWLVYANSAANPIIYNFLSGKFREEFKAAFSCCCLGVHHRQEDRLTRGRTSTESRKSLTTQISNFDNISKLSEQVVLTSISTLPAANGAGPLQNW
In words: Measurement of orexin type 2 receptor agonist activity (calcium fluorescence, CHO cells expressing hOX2R). It is filed as cell-based. The note with it: test compound 3 μM; CHO cells expressing human OX2 receptor; DMSO = 0%, orexin A (human) = 100%. The source says:
To obtain a cell clone stably expressing human orexin type 2 receptor, human orexin type 2 receptor cDNA was inserted into pcDNA3.1(+) plasmid vector (Invitrogen), and a plasmid DNA for expression of human orexin type 2 receptor (pcDNA3.1(+)/hOX2R) was cloned. The plasmid DNA was introduced into CHO-dhfr cell by an electroporation method, and human orexin type 2 receptor expressing clone cells were obtained by limiting dilution method by using G418 drug resistance as a selection marker.
CHO cells forcibly expressing human OX2 receptor were seeded in each well of 384 well black transparent bottom plate (BD Falcon) at 7,500 cells/well, and cultured for one day in a 5% CO2 incubator at 37° C. After removal of the medium in the cell plate, assay buffer A containing a calcium indicator (HBSS (Thermo Fisher Scientific), 20 mM HEPES (Thermo Fisher Scientific), 0.1% BSA (Wako Pure Chemical Industries, Ltd. or Sigma-Aldrich), 2.5 μg/mL Fluo-4 AM (DOJINDO Chemical), 0.08% Pluronic F127 (DOJINDO Chemical), 1.25 mM probenecid (DOJINDO Chemical)) was added at 30 μL/well. The plate was stood for 30 min in a 5% CO2 incubator at 37° C., and further stood at room temperature for 30 min. A test compound prepared by diluting with assay buffer B (HBSS, 20 mM HEPES, 0.1% BSA) was added at 10 μL/well, and the fluorescence value was measured by FDSSμCELL (Hamamatsu Photonics K.K.) every one sec for 1 min, and thereafter every two sec for 1 min 40 sec. The activity (%) of the test compound was calculated assuming that variation in the fluorescence value when DMSO was added instead of the test compound was 0%, and variation in the fluorescence value when orexin A (human) (PEPTIDE INSTITUTE, INC.) was added at the final concentration of 10 nM was 100%.

`CCOC(=O)N1CCC[C@H](NS(C)(=O)=O)[C@@H]1Cc1cccc(-c2ccccc2)n1` (relative stereo) [Example 38, ethyl cis-3-((methylsulfonyl)amino)-2-((6-phenylpyridin-2-yl)methyl)piperidine-1-carboxylate]: the “OX2R agonist activity (3 μM, %)” value came out at 75%. The value for `COC(=O)N1CCC[C@H](NS(C)(=O)=O)[C@@H]1Cc1ccc(F)c(-c2ccccc2)c1` (relative stereo) [Example 41, methyl cis-2-((6-fluorobiphenyl-3-yl)methyl)-3-((methylsulfonyl)amino)piperidine-1-carboxylate] was 67%. Regarding `CC(C)OC(=O)N1CCC[C@H](NS(C)(=O)=O)[C@@H]1Cc1cccc(-c2ccccc2)c1` (relative stereo) [Example 50, isopropyl cis-2-(biphenyl-3-ylmethyl)-3-((methylsulfonyl)amino)piperidine-1-carboxylate], the “OX2R agonist activity (3 μM, %)” value is on record as 97%. Turning to `COC(=O)N1CCC[C@H](NS(C)(=O)=O)[C@@H]1Cc1cccc(-c2ccc3c(cnn3C)c2)c1` (relative stereo) [Example 53, methyl cis-2-(3-(1-methyl-1H-indazol-5-yl)benzyl)-3-((methylsulfonyl)amino)piperidine-1-carboxylate], the “OX2R agonist activity (3 μM, %)” value is 72%. To `C=C(C)c1cccc(C[C@H]2[C@@H](NS(C)(=O)=O)CCCN2C(=O)OC)c1` (relative stereo) [Example 55, methyl cis-3-((methylsulfonyl)amino)-2-(3-(prop-1-en-2-yl)benzyl)piperidlne-1-carboxylate] belongs 84%; to `COC(=O)N1CCC[C@H](NS(C)(=O)=O)[C@@H]1Cc1cccc(C2CCC2)c1` (relative stereo) [Example 60, methyl cis-2-(3-cyclobutylbenzyl)-3-((methylsulfonyl)amino)piperidine-1-carboxylate], 26%. Consider `COC(=O)N1CC[C@H](NS(C)(=O)=O)[C@@H]1Cc1cccc(-c2ccccc2)c1` (relative stereo) [Example 61, methyl cis-2-(biphenyl-3-ylmethyl)-3-((methylsulfonyl)amino)pyrrolidine-1-carboxylate], for which the “OX2R agonist activity (3 μM, %)” value is given as 74%. `CCNC(=O)N1CCC[C@H](NS(C)(=O)=O)[C@@H]1Cc1ccccc1Oc1ccccc1` (relative stereo) [Example 62, cis-N-ethyl-3-((methylsulfonyl)amino)-2-(2-phenoxybenzyl)piperidine-1-carboxamide]: the “OX2R agonist activity (3 μM, %)” value turned out to be 93%. With `CCNC(=O)N1CCC[C@H](NS(C)(=O)=O)[C@@H]1Cc1ccc(Oc2ccccc2)cc1` (relative stereo) [Example 63, cis-N-ethyl-3-((methylsulfonyl)amino)-2-(4-phenoxybenzyl)piperidine-1-carboxamide], the “OX2R agonist activity (3 μM, %)” value is reported as 24%. Turning to `CC(C)OC(=O)N1CCC[C@H](NS(C)(=O)=O)[C@@H]1Cc1cccc(-c2ccccc2)n1` (relative stereo) [Example 64, isopropyl cis-3-((methylsulfonyl)amino)-2-((6-phenylpyridin-2-yl)methyl)piperidine-1-carboxylate], the “OX2R agonist activity (3 μM, %)” value was 96%.

Regarding `CC(C)OC(=O)N1CC[C@H](NS(C)(=O)=O)[C@@H]1Cc1cccc(-c2ccccc2)c1` (relative stereo) [Example 74, isopropyl cis-2-(biphenyl-3-ylmethyl)-3-((methylsulfonyl)amino)pyrrolidine-1-carboxylate], the “OX2R agonist activity (3 μM, %)” value was 104%. In the case of `CC(C)OC(=O)N1CCC[C@H](NS(C)(=O)=O)[C@@H]1Cc1cccc2c1oc1ccccc12` (relative stereo) [Example 78, isopropyl cis-2-(dibenzo[b,d]furan-4-ylmethyl)-3-((methylsulfonyl)amino)piperidine-1-carboxylate], the “OX2R agonist activity (3 μM, %)” value is recorded as 35%. Consider `CC(C)OC(=O)N1CCC[C@H](NS(C)(=O)=O)[C@@H]1Cc1csc(-c2ccccc2)n1` (relative stereo) [Example 89, isopropyl cis-3-((methylsulfonyl)amino)-2-((2-phenyl-1,3-thiazol-4-yl)methyl)piperidine-1-carboxylate], for which the “OX2R agonist activity (3 μM, %)” value was found to be 96%.

As for `CS(=O)(=O)N[C@H]1CCCN(C(=O)C2CC2)[C@H]1Cc1cccc(-c2ccccc2)c1` (relative stereo) [Example 93, N-(cis-2-(biphenyl-3-ylmethyl)-1-(cyclopropylcarbonyl)piperidin-3-yl)methanesulfonamide], the “OX2R agonist activity (3 μM, %)” value worked out at 101%. For `CC(C)C(=O)N1CCC[C@H](NS(C)(=O)=O)[C@@H]1Cc1cccc(-c2ccccc2)c1` (relative stereo) [Example 95, N-(cis-2-(biphenyl-3-ylmethyl)-1-isobutyrylpiperidin-3-yl)methanesulfonamide], the “OX2R agonist activity (3 μM, %)” value amounted to 97%. `CC(C)OC(=O)N1CCC[C@H](NS(C)(=O)=O)[C@@H]1Cc1cccc(-c2cc(F)ccc2F)n1` (relative stereo) [Example 100, isopropyl cis-2-((6-(2,5-difluorophenyl)pyridin-2-yl)methyl)-3-((methylsulfonyl)amino)piperidine-1-carboxylate]: the “OX2R agonist activity (3 μM, %)” value stood at 107%. For the molecule `CS(=O)(=O)N[C@H]1CCN(C(=O)OC2CC2)[C@H]1Cc1cccc(-c2ccccc2)c1` (relative stereo) [Example 108, cyclopropyl cis-2-(biphenyl-3-ylmethyl)-3-((methylsulfonyl)amino)pyrrolidine-1-carboxylate], the “OX2R agonist activity (3 μM, %)” value is reported as 69%.

Regarding `CC(C)OC(=O)N1CCC[C@H](NS(C)(=O)=O)[C@@H]1Cc1cccc(-c2cccc(F)c2F)c1` (relative stereo) [Example 116, isopropyl cis-2-((2′,3′-difluorobiphenyl-3-yl)methyl)-3-((methylsulfonyl)amino)piperidine-1-carboxylate], the “OX2R agonist activity (3 μM, %)” value came to 106%. The value for `CC(C)OC(=O)N1CCC[C@H](NS(C)(=O)=O)[C@@H]1Cn1ccc(-c2ccccc2)n1` (relative stereo) [Example 122, isopropyl cis-3-((methylsulfonyl)amino)-2-((3-phenyl-1H-pyrazol-1-yl)methyl)piperidine-1-carboxylate] was 82%. Take `CS(=O)(=O)N[C@H]1CCCN(C(=O)OC2CC2)[C@H]1Cc1cccc(-c2ccccc2)c1` (relative stereo) [Example 126, cyclopropyl cis-2-(biphenyl-3-ylmethyl)-3-((methylsulfonyl)amino)piperidine-1-carboxylate]: the “OX2R agonist activity (3 μM, %)” value is reported as 90%. `CS(=O)(=O)N[C@H]1CCCN(C(=O)Oc2ccccc2)[C@H]1Cc1cccc(-c2ccccc2)c1` (relative stereo) [Example 145, phenyl cis-2-(biphenyl-3-ylmethyl)-3-((methylsulfonyl)amino)piperidine-1-carboxylate]: the “OX2R agonist activity (3 μM, %)” value is 24%. `COC(=O)N1CCC[C@H](NS(C)(=O)=O)[C@@H]1Cc1cccc(-c2ccsc2)c1` (relative stereo) [Example 159, methyl cis-3-((methylsulfonyl)amino)-2-(3-(3-thienyl)benzyl)piperidine-1-carboxylate]: the “OX2R agonist activity (3 μM, %)” value is 65%.
